Key:
[1] = system: Mus musculus; experiment: Drug excretion in Mrp2 gene knockout C57BL/6 mouse assessed as drug recovery in outflow perfusate at 1 uM administered through single-pass liver perfusion for 15 mins relative to total liver drug content at the end of infusion; assay type: ADME, organism-based; conditions: in vivo, 0.25 h
[2] = system: Mus musculus; experiment: Drug excretion in C57BL/6 mouse assessed as drug recovery in outflow perfusate and bile at 1 uM administered through single-pass liver perfusion for 15 mins; assay type: ADME, organism-based; conditions: in vivo, other, 0.25 h
[3] = system: Mus musculus; experiment: Hepatic uptake clearance in Bcrp gene knockout C57BL/6 mouse at 1 uM administered through single-pass liver perfusion for 15 mins; assay type: ADME, organism-based; conditions: in vivo, 0.25 h
[4] = Drug excretion in C57BL/6 mouse assessed as drug recovery in bile at 1 uM administered through single-pass liver perfusion for 15 mins coinfused with Pgp and Bcrp inhibitor GW918 relative to total liver drug content at the end of infusion; assay type: ADME, tissue-based; design: scale not given: the % may be the effect or the level left; conditions: in vivo, 0.25 h
[5] = system: Mus musculus; experiment: Drug excretion in Bcrp gene knockout C57BL/6 mouse assessed as drug recovery in outflow perfusate at 1 uM administered through single-pass liver perfusion for 15 mins relative to total liver drug content at the end of infusion; assay type: ADME, organism-based; conditions: in vivo, 0.25 h
[6] = Drug excretion in Bcrp gene knockout C57BL/6 mouse assessed as drug recovery in bile at 1 uM administered through single-pass liver perfusion for 15 mins coinfused with Pgp and Bcrp inhibitor GW918 relative to total liver drug content at the end of infusion; assay type: ADME, tissue-based; design: scale not given: the % may be the effect or the level left; conditions: in vivo, 0.25 h
[7] = Drug excretion in Mrp2 gene knockout C57BL/6 mouse assessed as drug recovery in bile at 1 uM administered through single-pass liver perfusion for 15 mins coinfused with Pgp and Bcrp inhibitor GW918 relative to total liver drug content at the end of infusion; assay type: ADME, tissue-based; design: scale not given: the % may be the effect or the level left; conditions: in vivo, 0.25 h
[8] = Drug level in Bcrp gene knockout C57BL/6 mouse bile at 1 uM administered through single-pass liver perfusion for 15 mins coinfused with Pgp and Bcrp inhibitor GW918; assay type: ADME, tissue-based; conditions: in vivo, 0.25 h
[9] = system: Mus musculus; experiment: Hepatic uptake clearance in C57BL/6 mouse at 1 uM administered through single-pass liver perfusion for 15 mins coinfused with Pgp and Bcrp inhibitor GW918; assay type: ADME, organism-based; conditions: in vivo, 0.25 h
[10] = Drug level in Bcrp gene knockout C57BL/6 mouse bile at 1 uM administered through single-pass liver perfusion for 15 mins; assay type: ADME, tissue-based; conditions: in vivo, 0.25 h
[11] = Drug level in C57BL/6 mouse bile at 1 uM administered through single-pass liver perfusion for 15 mins; assay type: ADME, tissue-based; conditions: in vivo, 0.25 h
[12] = system: Mus musculus; experiment: Hepatic uptake clearance in Mrp2 gene knockout C57BL/6 mouse at 1 uM administered through single-pass liver perfusion for 15 mins coinfused with Pgp and Bcrp inhibitor GW918; assay type: ADME, organism-based; conditions: in vivo, 0.25 h
[13] = Drug level in Mrp2 gene knockout C57BL/6 mouse bile at 1 uM administered through single-pass liver perfusion for 15 mins; assay type: ADME, tissue-based; conditions: in vivo, 0.25 h
[14] = system: Mus musculus; experiment: Drug excretion in Bcrp gene knockout C57BL/6 mouse assessed as drug recovery in outflow perfusate at 1 uM administered through single-pass liver perfusion for 15 mins coinfused with Pgp and Bcrp inhibitor GW918 relative to total liver drug content at the end of infusion; assay type: ADME, organism-based; design: scale not given: the % may be the effect or the level left; conditions: in vivo, 0.25 h
[15] = system: Mus musculus; experiment: Drug excretion in Mrp2 gene knockout C57BL/6 mouse assessed as drug recovery in outflow perfusate at 1 uM administered through single-pass liver perfusion for 15 mins coinfused with Pgp and Bcrp inhibitor GW918 relative to total liver drug content at the end of infusion; assay type: ADME, organism-based; design: scale not given: the % may be the effect or the level left; conditions: in vivo, 0.25 h
[16] = Drug level in Mrp2 gene knockout C57BL/6 mouse bile at 1 uM administered through single-pass liver perfusion for 15 mins coinfused with Pgp and Bcrp inhibitor GW918; assay type: ADME, tissue-based; conditions: in vivo, 0.25 h
[17] = Drug excretion in Bcrp gene knockout C57BL/6 mouse assessed as drug recovery in bile at 1 uM administered through single-pass liver perfusion for 15 mins relative to total liver drug content at the end of infusion; assay type: ADME, tissue-based; conditions: in vivo, 0.25 h
[18] = system: Mus musculus; experiment: Hepatic uptake clearance in Bcrp gene knockout C57BL/6 mouse at 1 uM administered through single-pass liver perfusion for 15 mins coinfused with Pgp and Bcrp inhibitor GW918; assay type: ADME, organism-based; conditions: in vivo, 0.25 h
[19] = system: Mus musculus; experiment: Hepatic uptake clearance in Mrp2 gene knockout C57BL/6 mouse at 1 uM administered through single-pass liver perfusion for 15 mins; assay type: ADME, organism-based; conditions: in vivo, 0.25 h
[20] = Drug excretion in Mrp2 gene knockout C57BL/6 mouse assessed as drug recovery in bile at 1 uM administered through single-pass liver perfusion for 15 mins relative to total liver drug content at the end of infusion; assay type: ADME, tissue-based; conditions: in vivo, 0.25 h
[21] = Drug level in C57BL/6 mouse bile at 1 uM administered through single-pass liver perfusion for 15 mins coinfused with Pgp and Bcrp inhibitor GW918; assay type: ADME, tissue-based; conditions: in vivo, 0.25 h
[22] = system: Mus musculus; experiment: Drug excretion in Mrp2 gene knockout C57BL/6 mouse assessed as drug recovery in outflow perfusate and bile at 1 uM administered through single-pass liver perfusion for 15 mins; assay type: ADME, organism-based; conditions: in vivo, 0.25 h
[23] = system: Mus musculus; experiment: Drug excretion in Bcrp gene knockout C57BL/6 mouse assessed as drug recovery in outflow perfusate and bile at 1 uM administered through single-pass liver perfusion for 15 mins; assay type: ADME, organism-based; conditions: in vivo, 0.25 h
[24] = Drug excretion in C57BL/6 mouse assessed as drug recovery in bile at 1 uM administered through single-pass liver perfusion for 15 mins relative to total liver drug content at the end of infusion; assay type: ADME, tissue-based; conditions: in vivo, 0.25 h
[25] = system: Mus musculus; experiment: Hepatic uptake clearance in C57BL/6 mouse at 1 uM administered through single-pass liver perfusion for 15 mins; assay type: ADME, organism-based; conditions: in vivo, 0.25 h
[26] = system: Mus musculus; experiment: Drug excretion in C57BL/6 mouse assessed as drug recovery in outflow perfusate at 1 uM administered through single-pass liver perfusion for 15 mins coinfused with Pgp and Bcrp inhibitor GW918 relative to total liver drug content at the end of infusion; assay type: ADME, organism-based; design: scale not given: the % may be the effect or the level left; conditions: in vivo, 0.25 h
[27] = system: Mus musculus; experiment: Drug excretion in C57BL/6 mouse assessed as drug recovery in outflow perfusate at 1 uM administered through single-pass liver perfusion for 15 mins relative to total liver drug content at the end of infusion; assay type: ADME, organism-based; conditions: in vivo, 0.25 h

- Activity [1]: 29.5%
- Activity [2]: 90.5 %ID
- CLup [3]: 4.55 mL/min
- Activity [4]: 4.36%
- Activity [5]: 28.1%
- Activity [6]: 8.28%
- Activity [7]: 0.58%
- Drug uptake [8]: 14 µg/mL
- CLup [9]: 4.64 mL/min
- Drug uptake [10]: 19.1 µg/mL
- Drug uptake [11]: 8.65 µg/mL
- CLup [12]: 4.7 mL/min
- Drug uptake [13]: 3.45 µg/mL
- Activity [14]: 25.2%
- Activity [15]: 24%
- Drug uptake [16]: 1.77 µg/mL
- Activity [17]: 14.1%
- CLup [18]: 5.03 mL/min
- CLup [19]: 5.15 mL/min
- Activity [20]: 1.21%
- Drug uptake [21]: 7.82 µg/mL
- Activity [22]: 82.4 %ID
- Activity [23]: 86.5 %ID
- Activity [24]: 9.15%
- CLup [25]: 4.63 mL/min
- Activity [26]: 34.1%
- Activity [27]: 32.5%
Sequence: SPIRAMYCIN

From ChEMBL document CHEMBL1143417, “Roles of P-glycoprotein, Bcrp, and Mrp2 in biliary excretion of spiramycin in mice” (Antimicrob Agents Chemother, 2007)
